Assay results from PMC9737983, “Quantification of Paeoniflorin by Fully Validated LC–MS/MS Method: Its Application to Pharmacokinetic Interaction between Paeoniflorin and Verapamil” (Molecules, 2022).
Where two headings read alike, the source gives them in different places. Blank lines part the entries; values can stand above or below the molecule they belong to.

Tests used:
[1] = Caco-2 Transwell transport of PF with and without verapamil; format: in vitro ADME; conditions: human, Caco-2, absence of verapamil
Experimental: (§1) The Caco−2 cells were purchased from ATCC (Manassas, VA, USA) and cultured in a DMEM high-glucose medium with 15% FBS, 1% NEAA, and 100 U/mL penicillin and streptomycin. A total of 1.25 × 10^5 cells/cm^2 were seeded into […] (PET) in 96-well Falcon insert systems for 21–28 days to obtain a confluent cell monolayer. The test compounds were diluted with the transport buffer (HBSS with BSA) obtained from a 10 mM stock solution to a concentration of 10 µM and applied to the apical or basolateral sides of the cell monolayer. The permeation of the test compounds from A to B directions or B to A directions was determined in duplicate over a 120-min incubation period at 37 °C and 5% CO2 with a relative humidity of 95%. In addition, the efflux ratio of each compound was also determined. Test and reference compounds were quantified by LC-MS/MS analysis based on the peak area ratio of analyte/IS. The apparent permeability coefficient, Papp (cm/s), was calculated using the following equation:Papp = (dCr/dt) × Vr/(A × C0) where dCr/dt is the cumulative concentration of the compound in the receiver chamber as a function of time (S); Vr is the solution volume in the receiver chamber (0.1 mL on the apical side and 0.25 mL on the basolateral side); A is the surface area for the transport, i.e., 0.0804 cm^2 for the area of the monolayer and C0 is the initial concentration in the donor chamber. The efflux ratio was calculated using the following equation:Efflux Ratio = Papp BA/Papp AB where Papp BA is the apparent permeability coefficient obtained from the BL to AP sides (cm/s), and Papp AB is the apparent permeability coefficient obtained from the AP to BL sides (cm/s).

[2] = test system: Caco−2 cells; test: as above; format: in vitro ADME; conditions: with/without verapamil, p < 0.05
Experimental: as §1

[3] = Pharmacokinetic study in male SD rats (intravenous, oral, oral co-administration with verapamil); format: in vivo, Sprague–Dawley rats; conditions: for MRT inf: read-out: MRT0–∞; for Vd/F: read-out: Vz/F
Experimental: The animal experiment was approved by the Experimental Animal Ethics Committee of Shanghai University of Traditional Chinese Medicine (the Ethics Number: PZSHUTCM201016015). After 7 days of freely feeding the animals to acclimation, the rats were randomly divided into five groups, including the following: PF at an intravenous dose of 2 mg/kg and intragastric administrations of 5 mg/kg, 10 mg/kg, and 20 mg/kg; PF combined with verapamil at doses of 20 mg/kg and 50 mg/kg, respectively. All groups of PF or PF combined with verapamil were dissolved in saline to be completely dissolved or suspended. Blood samples were collected into EDTA−2K anti-coagulant tubes at projected times (0.083, 0.25, 0.5, 1, 2, 4, and 6 h post-dose) and then immediately centrifuged at 5500 rpm at 4 °C for 10 min to obtain the supernatant. The plasma samples were stored at −20 °C prior to analysis.
The plasma drug concentration of the PF was quantitated, according to the calibration curve, by the ratio of the analyte-to-IS peak areas obtained for each sample. Pharmacokinetic parameters, such as elimination half-life (T1/2), the area under the concentration–time curve from time zero to infinity (AUC0–∞), total body clearance (CL), and volume of distribution (Vz), were analyzed by the non-compartment model using WinNonlin software (Version 8.2). Subsequently, the main pharmacokinetic parameters were analyzed by an independent sample t-test. The oral absolute bioavailability was calculated as prescribed by the following equation: F (%) = (AUCp.o. × Dosei.v.)/(AUCi.v. × Dosep.o.) × 100%.

[4] = Stability of PF in SD rat plasma under storage conditions; format: in vitro ADME; conditions: for Freeze-thaw Stability, Measured Conc. / Bench-top Stability, Measured Conc. / Long-term Stability, Measured Conc.: SD rat plasma; for Freeze-thaw Stability, Measured Conc.: 4 cycles at −20 °C; for Freeze-thaw Stability, Measured Conc. / Bench-top Stability, Measured Conc. / Long-term Stability, Measured Conc. / Autosampler Stability, Measured Conc.: n = 6; for Bench-top Stability, Measured Conc.: room temperature for 16 h; for Long-term Stability, Measured Conc.: −20 °C for 90 days; for Autosampler Stability, Measured Conc.: extracted SD rat plasma, 10 °C for 72 h
Experimental: Stability in the plasma was tested by comparing the two-level QC samples (LQC and HQC) in sextuplicate injections to theoretical concentrations.
The stability of PF in rat plasma was investigated by analyzing QC samples at […]. Long-term stability was tested at −20 °C for at least 30 days; short-term stability was tested at room temperature for at least 6 h; the post-preparative stability test was conducted at 10 °C for 72 […] The determined concentrations should be within ±15% of the nominal concentrations.

[5] = set-up: method as in PMID 31400507; conditions: cited from earlier work; for BCS class: classic BCS, everted gut sac assay
[6] = test system: Caco-2 cell; conditions: Caco-2 monolayer cell; cited from earlier work
[7] = male, Sprague-Dawley, rat, plasma, iv, 2 mg/kg, intravenous 2 mg/kg, n = 5
[8] = male, Sprague-Dawley, rat, plasma, po, 5 mg/kg, oral mono-administration 5 mg/kg, n = 5
[9] = male, Sprague-Dawley, rat, plasma, po, 10 mg/kg, oral mono-administration 10 mg/kg, n = 5
[10] = male, Sprague-Dawley, rat, plasma, po, 20 mg/kg, oral 20 mg/kg co-administration with verapamil (50 mg/kg), n = 5
[11] = male, Sprague-Dawley, rat, plasma, po, 20 mg/kg, oral mono-administration 20 mg/kg, n = 5
[12] = male, Sprague-Dawley, rat, plasma, po, 20 mg/kg, range over oral doses 5, 10, 20 mg/kg
[13] = male, Sprague-Dawley, rat, plasma, intravenous 2 mg/kg, n = 5
[14] = oral 20 mg/kg with verapamil vs alone, p < 0.05

- efflux ratio at 120 min, 10 µM [1]: 1.52
- Papp A→B at 120 min, 10 µM ([1]; 10 µM, 120 min): 0.17 ×10⁻⁶ cm/s
- Papp B→A at 120 min, 10 µM ([1]; 10 µM, 120 min): 0.26 ×10⁻⁶ cm/s
- AUC(0-inf) [3, 7]: 2400 ± 201 ng·h/mL
- AUC(0-t) [3, 7]: 2400 ± 202 ng·h/mL
- half-life [3, 7]: 54 ± 24 min
- MRT inf [3, 7]: 12 min
- bioavailability ([3]; male, Sprague-Dawley, rat, plasma, po, 5 mg/kg, oral mono-administration 5 mg/kg vs intravenous 2 mg/kg, read-out: F): 1.3%
- AUC(0-inf) [3, 8]: 74.7 ± 49.1 ng·h/mL
- AUC(0-t) [3, 8]: 64.7 ± 44 ng·h/mL
- CL/F [3, 8]: 1640 mL/min/kg
- Cmax [3, 8]: 42.3 ± 17.5 ng/mL
- Tmax [3, 8]: 30 min
- half-life [3, 8]: 48 ± 24 min
- MRT inf [3, 8]: 78 ± 30 min
- Vd/F [3, 8]: 85.7 ± 21.1 L/kg
- bioavailability ([3]; male, Sprague-Dawley, rat, plasma, po, 10 mg/kg, oral mono-administration 10 mg/kg vs intravenous 2 mg/kg, read-out: F): 0.7%
- AUC(0-inf) [3, 9]: 84 ± 17 ng·h/mL
- AUC(0-t) [3, 9]: 82.3 ± 18.4 ng·h/mL
- CL/F [3, 9]: 2050 mL/min/kg
- Cmax [3, 9]: 63.4 ± 11.4 ng/mL
- Tmax [3, 9]: 30 min
- half-life [3, 9]: 30 ± 6 min
- MRT inf [3, 9]: 60 ± 12 min
- Vd/F [3, 9]: 89 ± 7.1 L/kg
- AUC(0-inf) [3, 10]: 892 ± 487 ng·h/mL
- AUC(0-t) [3, 10]: 882 ± 491 ng·h/mL
- CL/F [3, 10]: 487 mL/min/kg
- Cmax [3, 10]: 464 ± 237 ng/mL
- Tmax [3, 10]: 42 ± 18 min
- half-life [3, 10]: 42 ± 6 min
- MRT inf [3, 10]: 90 ± 6 min
- Vd/F [3, 10]: 31.5 ± 20.3 L/kg
- bioavailability ([3]; male, Sprague-Dawley, rat, plasma, po, 20 mg/kg, oral 20 mg/kg co-administration with verapamil vs intravenous 2 mg/kg, read-out: F): 3.7%
- bioavailability ([3]; male, Sprague-Dawley, rat, plasma, po, 20 mg/kg, oral mono-administration 20 mg/kg vs intravenous 2 mg/kg, read-out: F): 0.6%
- AUC(0-inf) [3, 11]: 157 ± 65.3 ng·h/mL
- AUC(0-t) [3, 11]: 149 ± 64.8 ng·h/mL
- CL/F [3, 11]: 2420 mL/min/kg
- Cmax [3, 11]: 100 ± 42.5 ng/mL
- Tmax [3, 11]: 42 ± 18 min
- half-life [3, 11]: 30 ± 6 min
- MRT inf [3, 11]: 72 ± 6 min
- Vd/F [3, 11]: 112 ± 45.7 L/kg
- CL/F [3, 12]: 1640 to 2420 mL/min/kg
- Tmax [3, 12]: 30 to 42 min
- half-life [3, 12]: 30 to 48 min
- bioavailability ([3]; male, Sprague-Dawley, rat, plasma, po, 20 mg/kg, range over oral doses 5, 10, 20 mg/kg, read-out: absolute oral bioavailability): 0.6 to 1.3%
- C0 [3, 13]: 11200 ng/mL
- clearance [3, 13]: 13.3 mL/min/kg
- Vd ([3]; male, Sprague-Dawley, rat, plasma, intravenous 2 mg/kg, n = 5, read-out: Vz): 0.2 L/kg
- Cmax ([3]; oral 5 mg/kg): 42.3 ± 17.5 ng/mL
- Cmax ([3]; oral 10 mg/kg): 63.4 ± 11.4 ng/mL
- Cmax ([3]; oral 20 mg/kg): 100 ± 42.5 ng/mL
- increase of Cmax, co-administration vs mono-administration ([3]; oral 20 mg/kg with verapamil vs alone, p < 0.01): 4.6 times
- increase of AUC0–t, co-administration vs mono-administration [3, 14]: 5.9 times
- increase of AUC0–∞, co-administration vs mono-administration [3, 14]: 5.7 times
- Tmax, T1/2 and MRT0–∞, co-administration vs mono-administration ([3]; oral 20 mg/kg with verapamil vs alone, statistical analysis): no significant difference
- stability in SD rat plasma ([4]; 16 h bench-top, 72 h autosampler, 4 freeze-thaw cycles at −20 °C, 90 days at −20 °C): stable
- Freeze-thaw Stability, Measured Conc. ([4]; nominal 3.0 ng/mL): 3.14 ± 0.17 ng/mL
- Freeze-thaw Stability, Measured Conc. ([4]; nominal 1500 ng/mL): 1662 ± 44.5 ng/mL
- Bench-top Stability, Measured Conc. ([4]; nominal 3.0 ng/mL): 3.01 ± 0.21 ng/mL
- Bench-top Stability, Measured Conc. ([4]; nominal 1500 ng/mL): 1538 ± 52.0 ng/mL
- Long-term Stability, Measured Conc. ([4]; nominal 3.0 ng/mL): 2.86 ± 0.20 ng/mL
- Long-term Stability, Measured Conc. ([4]; nominal 1500 ng/mL): 1500 ± 37.4 ng/mL
- Autosampler Stability, Measured Conc. ([4]; nominal 3.0 ng/mL): 2.91 ± 0.16 ng/mL
- Autosampler Stability, Measured Conc. ([4]; nominal 1500 ng/mL): 1535 ± 54.7 ng/mL
Molecule: C[C@@]12C[C@@]3(O)O[C@@H](O1)[C@]1(COC(=O)c4ccccc4)[C@H]3C[C@@]12O[C@@H]1O[C@H](CO)[C@@H](O)[C@H](O)[C@H]1O [PF, paeoniflorin]
- P-gp substrate status [2]: may be a substrate for the P-gp efflux transporter
- solubility and permeability characteristics [5]: high solubility and low permeability
- efflux rate constant [6]: higher than 2

Molecule: O=c1c(O[C@@H]2O[C@H](CO)[C@H](O)[C@H](O)[C@H]2O)c(-c2ccc(O)c(O)c2)oc2cc(O)cc(O)c12 [hyperoside]
- BCS class [5]: III/IV

Molecule: COc1cc2c3c(c1OC)-c1ccccc1C[C@H]3N(C)CC2 [nuciferine]
- BCS class [5]: III/IV

Molecule: C[C@@H]1O[C@@H](OC[C@H]2O[C@@H](Oc3c(-c4ccc(O)c(O)c4)oc4cc(O)cc(O)c4c3=O)[C@H](O)[C@@H](O)[C@@H]2O)[C@H](O)[C@H](O)[C@H]1O [rutin]
- BCS class [5]: III/IV

Molecule: salvianolic acid B
- BCS class [5]: III/IV
